# Like-named read-outs stand apart in the source and are kept apart here.
# Columns and labels:
# CDK14/Cyclin Y = CDK14/Cyclin Y (Homo sapiens, UniProt O94921); test: NanoBRET live-cell target engagement, CDK14-NanoLuc/Cyclin Y in HEK-293; assay type: binding; settings: read-out: Inhibition at 10µM (%), CDK14/Y
# CDK19/Cyclin C = CDK19/Cyclin C (Homo sapiens, UniProt Q9BWU1); test: NanoBRET live-cell target engagement, NanoLuc-CDK19/Cyclin C in HEK-293; settings: for IC50: CDK19/C; for inhibition at 10 µM: read-out: Inhibition at 10µM (%), CDK19/C
# CDK11B/Cyclin L2 = CDK11B/Cyclin L2 (Homo sapiens, UniProt P21127); test: NanoBRET live-cell target engagement, CDK11B-NanoLuc/Cyclin L2 in HEK-293; assay type: binding; settings: read-out: Inhibition at 10µM (%), CDK11b/L2
# CDK15/Cyclin Y = CDK15/Cyclin Y (Homo sapiens, UniProt Q96Q40); test: NanoBRET live-cell target engagement, NanoLuc-CDK15/Cyclin Y in HEK-293; assay type: binding; settings: read-out: Inhibition at 10µM (%), CDK15/Y
# CDK9/Cyclin K = CDK9/Cyclin K (Homo sapiens, UniProt P50750); test: NanoBRET live-cell target engagement, NanoLuc-CDK9/Cyclin K in HEK-293; assay type: binding; settings: CDK9/K, read-out: Inhibition at 10µM (%)
# Sequence of CDK9/Cyclin K (P50750 whole entry): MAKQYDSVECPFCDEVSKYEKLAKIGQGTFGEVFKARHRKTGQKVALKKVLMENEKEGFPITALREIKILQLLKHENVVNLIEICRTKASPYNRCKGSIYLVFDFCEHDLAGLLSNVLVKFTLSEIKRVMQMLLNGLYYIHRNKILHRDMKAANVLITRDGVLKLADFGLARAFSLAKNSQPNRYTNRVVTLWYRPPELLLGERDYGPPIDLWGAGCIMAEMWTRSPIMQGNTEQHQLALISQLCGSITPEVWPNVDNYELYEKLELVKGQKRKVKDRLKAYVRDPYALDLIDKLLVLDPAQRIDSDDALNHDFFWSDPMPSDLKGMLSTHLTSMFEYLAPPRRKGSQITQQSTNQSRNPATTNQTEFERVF
# Sequence of CDK9/Cyclin K (O75909 whole entry partner): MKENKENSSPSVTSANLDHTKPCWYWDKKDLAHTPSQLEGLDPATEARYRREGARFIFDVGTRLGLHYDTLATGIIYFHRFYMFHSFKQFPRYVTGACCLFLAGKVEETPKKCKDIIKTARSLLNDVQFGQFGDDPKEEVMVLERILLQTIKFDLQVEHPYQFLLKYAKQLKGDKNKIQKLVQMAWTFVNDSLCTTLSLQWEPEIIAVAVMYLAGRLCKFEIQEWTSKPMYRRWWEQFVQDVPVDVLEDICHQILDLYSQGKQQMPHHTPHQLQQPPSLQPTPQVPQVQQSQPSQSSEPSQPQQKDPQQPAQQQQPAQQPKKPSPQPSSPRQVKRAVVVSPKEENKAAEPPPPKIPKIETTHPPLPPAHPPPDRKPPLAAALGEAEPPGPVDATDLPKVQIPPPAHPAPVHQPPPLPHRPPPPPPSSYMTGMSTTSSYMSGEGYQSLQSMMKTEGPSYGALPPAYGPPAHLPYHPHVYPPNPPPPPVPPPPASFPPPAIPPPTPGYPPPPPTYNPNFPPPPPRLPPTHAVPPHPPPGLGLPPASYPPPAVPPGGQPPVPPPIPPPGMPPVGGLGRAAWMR
# CDK1/Cyclin E1 = CDK1/Cyclin E1 (Homo sapiens, UniProt P06493); test: NanoBRET live-cell target engagement, CDK1-NanoLuc/Cyclin E1 in HEK-293; assay type: binding; settings: CDK1/E1, read-out: Inhibition at 10µM (%)
# Sequence of CDK1/Cyclin E1 (P06493 whole entry): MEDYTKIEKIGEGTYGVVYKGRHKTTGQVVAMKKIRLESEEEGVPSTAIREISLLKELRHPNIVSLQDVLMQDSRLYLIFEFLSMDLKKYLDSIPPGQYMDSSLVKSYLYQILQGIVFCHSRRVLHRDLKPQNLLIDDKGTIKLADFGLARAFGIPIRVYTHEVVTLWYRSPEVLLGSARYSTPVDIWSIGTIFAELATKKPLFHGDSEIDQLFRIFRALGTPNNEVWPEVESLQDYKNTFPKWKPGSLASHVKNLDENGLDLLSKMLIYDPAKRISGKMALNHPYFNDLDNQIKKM
# Sequence of CDK1/Cyclin E1 (P24864 whole entry partner): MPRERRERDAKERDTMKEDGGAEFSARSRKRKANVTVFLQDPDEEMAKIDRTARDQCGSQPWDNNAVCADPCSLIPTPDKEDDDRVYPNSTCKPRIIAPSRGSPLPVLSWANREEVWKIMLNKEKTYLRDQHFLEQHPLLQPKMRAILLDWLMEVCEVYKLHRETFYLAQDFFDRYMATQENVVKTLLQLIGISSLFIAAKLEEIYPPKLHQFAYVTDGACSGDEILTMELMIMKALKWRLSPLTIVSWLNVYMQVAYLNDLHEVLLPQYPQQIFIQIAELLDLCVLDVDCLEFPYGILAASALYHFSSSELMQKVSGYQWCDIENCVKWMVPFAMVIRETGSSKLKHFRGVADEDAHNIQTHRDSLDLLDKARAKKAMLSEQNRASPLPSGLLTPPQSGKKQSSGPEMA
# CDK11A/Cyclin L2 = biological target: T1, CDK11A/Cyclin L2 (Homo sapiens, UniProt Q9UQ88); test: NanoBRET live-cell target engagement, CDK11A-NanoLuc/Cyclin L2 in HEK-293; assay type: binding; settings: read-out: Inhibition at 10µM (%), CDK11a/L2
# T1 sequence (Q9UQ88 1-783): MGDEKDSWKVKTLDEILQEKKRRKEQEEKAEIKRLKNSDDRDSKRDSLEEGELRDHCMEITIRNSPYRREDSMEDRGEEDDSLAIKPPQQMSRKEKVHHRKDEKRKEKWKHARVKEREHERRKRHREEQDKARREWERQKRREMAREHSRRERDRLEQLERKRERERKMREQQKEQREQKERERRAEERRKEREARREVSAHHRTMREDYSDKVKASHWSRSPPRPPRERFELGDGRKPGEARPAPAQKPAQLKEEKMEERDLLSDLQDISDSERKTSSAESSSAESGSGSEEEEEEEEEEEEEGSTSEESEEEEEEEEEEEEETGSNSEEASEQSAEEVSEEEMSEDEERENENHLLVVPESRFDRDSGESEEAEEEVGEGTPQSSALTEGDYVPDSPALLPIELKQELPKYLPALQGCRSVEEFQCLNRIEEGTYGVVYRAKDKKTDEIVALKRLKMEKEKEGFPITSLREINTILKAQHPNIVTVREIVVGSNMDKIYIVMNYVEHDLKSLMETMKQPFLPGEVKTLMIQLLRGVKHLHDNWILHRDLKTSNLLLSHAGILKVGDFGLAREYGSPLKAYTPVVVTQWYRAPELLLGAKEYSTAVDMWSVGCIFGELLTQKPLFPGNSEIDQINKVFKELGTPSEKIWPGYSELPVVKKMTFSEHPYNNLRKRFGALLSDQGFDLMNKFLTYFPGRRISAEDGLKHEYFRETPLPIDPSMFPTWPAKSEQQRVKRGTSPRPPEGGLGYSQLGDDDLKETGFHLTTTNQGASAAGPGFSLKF
# CDK17/Cyclin Y = CDK17/Cyclin Y (Homo sapiens, UniProt Q00537); test: NanoBRET live-cell target engagement, CDK17-NanoLuc/Cyclin Y in HEK-293; assay type: binding; settings: read-out: Inhibition at 10µM (%), CDK17/Y
# CDK16/Cyclin Y = CDK16/Cyclin Y (Homo sapiens, UniProt Q00536); test: NanoBRET live-cell target engagement, CDK16-NanoLuc/Cyclin Y in HEK-293; assay type: binding; settings: read-out: Inhibition at 10µM (%), CDK16/Y
# CDK4/Cyclin D1 = CDK4/Cyclin D1 (Homo sapiens, UniProt P11802); test: NanoBRET live-cell target engagement, NanoLuc-CDK4/Cyclin D1 in HEK-293; assay type: binding; settings: CDK4/D1, read-out: Inhibition at 10µM (%)
# Sequence of CDK4/Cyclin D1 (P11802 whole entry): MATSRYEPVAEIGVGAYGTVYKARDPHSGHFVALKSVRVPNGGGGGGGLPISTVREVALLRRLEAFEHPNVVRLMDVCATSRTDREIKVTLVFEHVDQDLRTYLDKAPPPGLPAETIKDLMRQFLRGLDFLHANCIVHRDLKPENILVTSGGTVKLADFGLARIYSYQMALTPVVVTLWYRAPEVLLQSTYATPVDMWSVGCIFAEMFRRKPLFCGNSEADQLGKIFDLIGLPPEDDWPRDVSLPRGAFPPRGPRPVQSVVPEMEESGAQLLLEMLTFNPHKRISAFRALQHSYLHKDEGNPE
# Sequence of CDK4/Cyclin D1 (P24385 whole entry partner): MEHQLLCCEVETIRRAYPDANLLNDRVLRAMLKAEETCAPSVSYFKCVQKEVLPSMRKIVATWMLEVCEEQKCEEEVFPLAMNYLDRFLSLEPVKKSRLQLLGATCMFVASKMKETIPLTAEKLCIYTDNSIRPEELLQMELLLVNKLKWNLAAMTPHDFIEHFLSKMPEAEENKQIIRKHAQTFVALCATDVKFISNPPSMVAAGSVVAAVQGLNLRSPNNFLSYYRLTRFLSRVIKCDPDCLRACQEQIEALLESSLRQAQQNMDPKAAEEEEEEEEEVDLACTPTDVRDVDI
# CDK10/Cyclin L2 = CDK10/Cyclin L2 (Homo sapiens, UniProt Q15131); test: NanoBRET live-cell target engagement, CDK10-NanoLuc/Cyclin L2 in HEK-293; settings: read-out: Inhibition at 10µM (%), CDK10/L2
# Sequence of CDK10/Cyclin L2 (Q15131 whole entry): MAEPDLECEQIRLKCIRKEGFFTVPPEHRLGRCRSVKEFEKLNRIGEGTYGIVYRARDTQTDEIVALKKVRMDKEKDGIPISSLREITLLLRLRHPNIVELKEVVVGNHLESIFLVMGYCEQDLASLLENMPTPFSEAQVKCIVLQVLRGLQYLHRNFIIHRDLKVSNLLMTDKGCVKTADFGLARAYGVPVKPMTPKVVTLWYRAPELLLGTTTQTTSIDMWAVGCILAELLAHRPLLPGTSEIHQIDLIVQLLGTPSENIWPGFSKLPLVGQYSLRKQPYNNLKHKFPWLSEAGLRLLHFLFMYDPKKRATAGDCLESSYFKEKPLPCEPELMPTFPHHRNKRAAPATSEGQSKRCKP
# CDK8/Cyclin C = CDK8/Cyclin C (Homo sapiens, UniProt P49336); test: NanoBRET live-cell target engagement, NanoLuc-CDK8/Cyclin C in HEK-293; assay type: binding; settings: for IC50: CDK8/C; for inhibition at 10 µM: read-out: Inhibition at 10µM (%), CDK8/C
# CDK18/Cyclin Y = CDK18/Cyclin Y (Homo sapiens, UniProt Q07002); test: NanoBRET live-cell target engagement, CDK18-NanoLuc/Cyclin Y in HEK-293; assay type: binding; settings: read-out: Inhibition at 10µM (%), CDK18/Y
# Sequence of CDK18/Cyclin Y (Q07002 whole entry): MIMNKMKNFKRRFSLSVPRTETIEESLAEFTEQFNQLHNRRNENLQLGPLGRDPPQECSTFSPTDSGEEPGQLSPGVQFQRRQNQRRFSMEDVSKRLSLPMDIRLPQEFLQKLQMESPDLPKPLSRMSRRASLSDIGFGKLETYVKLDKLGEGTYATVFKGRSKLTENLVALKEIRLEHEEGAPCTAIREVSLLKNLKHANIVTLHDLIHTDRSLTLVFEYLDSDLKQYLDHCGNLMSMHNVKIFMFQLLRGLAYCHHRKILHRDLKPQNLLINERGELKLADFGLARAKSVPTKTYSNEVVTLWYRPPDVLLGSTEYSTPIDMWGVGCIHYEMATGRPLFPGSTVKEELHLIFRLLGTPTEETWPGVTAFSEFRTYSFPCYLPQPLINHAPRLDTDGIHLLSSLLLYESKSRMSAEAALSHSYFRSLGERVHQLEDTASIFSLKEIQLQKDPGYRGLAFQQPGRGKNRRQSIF
# Sequence of CDK18/Cyclin Y (Q8ND76 whole entry partner): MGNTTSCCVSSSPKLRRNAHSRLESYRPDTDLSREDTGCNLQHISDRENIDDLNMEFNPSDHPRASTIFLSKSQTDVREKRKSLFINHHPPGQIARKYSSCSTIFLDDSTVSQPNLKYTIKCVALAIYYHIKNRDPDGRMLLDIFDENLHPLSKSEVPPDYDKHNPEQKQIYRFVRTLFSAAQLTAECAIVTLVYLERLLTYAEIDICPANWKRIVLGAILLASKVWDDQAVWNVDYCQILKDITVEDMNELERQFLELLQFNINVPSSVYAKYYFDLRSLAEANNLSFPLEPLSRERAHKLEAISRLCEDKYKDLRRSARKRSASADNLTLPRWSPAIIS
# CDK5/CDK5R1 = CDK5/CDK5R1 (Homo sapiens, UniProt Q00535); test: NanoBRET live-cell target engagement, CDK5-NanoLuc/CDK5R1 in HEK-293; assay type: binding; settings: CDK5/CDK5R1, read-out: Inhibition at 10µM (%)
# Sequence of CDK5/CDK5R1 (Q00535 whole entry): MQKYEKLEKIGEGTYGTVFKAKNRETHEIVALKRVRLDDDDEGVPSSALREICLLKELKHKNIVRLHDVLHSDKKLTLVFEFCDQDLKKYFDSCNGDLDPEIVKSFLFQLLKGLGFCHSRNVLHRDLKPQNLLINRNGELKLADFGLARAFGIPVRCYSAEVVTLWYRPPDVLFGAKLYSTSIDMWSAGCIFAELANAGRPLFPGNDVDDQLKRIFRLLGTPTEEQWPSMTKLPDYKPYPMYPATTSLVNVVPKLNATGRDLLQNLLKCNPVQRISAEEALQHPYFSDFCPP
# Sequence of CDK5/CDK5R1 (Q15078 whole entry partner): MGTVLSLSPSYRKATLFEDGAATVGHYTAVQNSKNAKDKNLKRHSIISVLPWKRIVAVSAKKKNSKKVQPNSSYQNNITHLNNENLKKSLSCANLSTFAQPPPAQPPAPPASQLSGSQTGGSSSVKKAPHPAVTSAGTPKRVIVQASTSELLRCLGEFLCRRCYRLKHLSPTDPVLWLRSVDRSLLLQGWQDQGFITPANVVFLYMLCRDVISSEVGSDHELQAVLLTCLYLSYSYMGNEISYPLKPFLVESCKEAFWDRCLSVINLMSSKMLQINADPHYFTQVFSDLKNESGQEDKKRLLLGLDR
# CDK13/Cyclin K = CDK13/Cyclin K (Homo sapiens, UniProt Q14004); test: NanoBRET live-cell target engagement, CDK13-NanoLuc/Cyclin K in HEK-293; assay type: binding; settings: CDK13/K, read-out: Inhibition at 10µM (%)
# CDK20/Cyclin H = CDK20/Cyclin H (Homo sapiens, UniProt Q8IZL9); test: NanoBRET live-cell target engagement, NanoLuc-CDK20/Cyclin H in HEK-293; assay type: binding; settings: read-out: Inhibition at 10µM (%), CDK20/H
# CDK6/Cyclin D1 = CDK6/Cyclin D1 (Homo sapiens, UniProt Q00534); test: NanoBRET live-cell target engagement, NanoLuc-CDK6/Cyclin D1 in HEK-293; assay type: binding; settings: CDK6/D1, read-out: Inhibition at 10µM (%)
# Sequence of CDK6/Cyclin D1 (Q00534 whole entry): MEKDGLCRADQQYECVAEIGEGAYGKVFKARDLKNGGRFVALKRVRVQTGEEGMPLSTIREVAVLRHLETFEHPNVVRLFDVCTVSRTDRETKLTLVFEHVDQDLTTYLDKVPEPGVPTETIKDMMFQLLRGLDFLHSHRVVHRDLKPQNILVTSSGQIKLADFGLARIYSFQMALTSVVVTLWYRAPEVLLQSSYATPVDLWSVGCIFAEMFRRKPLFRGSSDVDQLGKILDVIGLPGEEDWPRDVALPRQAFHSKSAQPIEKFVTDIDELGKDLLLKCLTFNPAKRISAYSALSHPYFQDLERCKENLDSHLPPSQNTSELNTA
# Sequence of CDK6/Cyclin D1 (P24385 whole entry partner): as the sequence (P24385 whole entry partner) above
# CDK12/Cyclin K = CDK12/Cyclin K (Homo sapiens, UniProt Q9NYV4); test: NanoBRET live-cell target engagement, CDK12-NanoLuc/Cyclin K in HEK-293; assay type: binding; settings: read-out: Inhibition at 10µM (%), CDK12/K
# CDK7 = CDK7 (Homo sapiens, UniProt P50613); test: NanoBRET live-cell target engagement, NanoLuc-CDK7 in HEK-293; assay type: binding; settings: CDK7, read-out: Inhibition at 10µM (%)
# Sequence of CDK7 (P50613 whole entry): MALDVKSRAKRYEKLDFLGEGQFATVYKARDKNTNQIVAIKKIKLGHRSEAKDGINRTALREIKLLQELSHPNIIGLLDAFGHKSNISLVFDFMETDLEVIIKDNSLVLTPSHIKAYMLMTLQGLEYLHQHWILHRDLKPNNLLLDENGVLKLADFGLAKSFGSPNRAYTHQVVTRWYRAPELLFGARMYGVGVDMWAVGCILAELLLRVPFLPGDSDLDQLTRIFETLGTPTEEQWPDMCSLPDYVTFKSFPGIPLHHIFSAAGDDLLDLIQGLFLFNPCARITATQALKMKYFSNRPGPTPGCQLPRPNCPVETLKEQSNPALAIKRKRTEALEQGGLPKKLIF
# [1] = IC50 for CDK/cyclin complexes, live HEK-293, 2 h, mean ± S.E.M. (n=3) or mean (n=2)
# [2] = LOG10([CCT251545 analog]) (LOG10(µM)) 0.045757
# [3] = LOG10([CCT251545 analog]) (LOG10(µM)) 0.522879
# [4] = LOG10([CCT251545 analog]) (LOG10(µM)) 1
# [5] = LOG10([CCT251545 analog]) (LOG10(µM)) -0.43136
# [6] = LOG10([CCT251545 analog]) (LOG10(µM)) -0.90849
# [7] = LOG10([CCT251545 analog]) (LOG10(µM)) -1.38561
# [8] = LOG10([CCT251545 analog]) (LOG10(µM)) -1.86273
# [9] = LOG10([CCT251545 analog]) (LOG10(µM)) -2.33985
# [10] = LOG10([CCT251545 analog]) (LOG10(µM)) -2.81697
# [11] = LOG10([CCT251545 analog]) (LOG10(µM)) -3.29409
# [12] = LOG10([CCT251545 analog]) (LOG10(µM)) -3.77121
smiles,measurement,setting,value
COC1CN(C(=O)c2ccc3c(N)ncc(-c4ccc(-c5cnn(C)c5)cc4)c3n2)C1 [CCT251545 analog],inhibition at 10 µM,CDK14/Cyclin Y; average,-6.1%
same,inhibition at 10 µM,CDK14/Cyclin Y; experiment 1,-1.1%
same,inhibition at 10 µM,CDK14/Cyclin Y; experiment 2,-11%
same,IC50,"CDK19/Cyclin C; IC50 (nM), experiment 1",9 nM
same,IC50,"CDK19/Cyclin C; IC50 (nM), experiment 2",3 nM
same,IC50,"CDK19/Cyclin C; IC50 (nM), experiment 3",17 nM
same,IC50,CDK19/Cyclin C; [1],10 nM
same,CDK19 occupancy (%),CDK19/Cyclin C; [2],84.8277%
same,CDK19 occupancy (%),CDK19/Cyclin C; [3],83.6158%
same,CDK19 occupancy (%),CDK19/Cyclin C; [4],72.7094%
same,CDK19 occupancy (%),CDK19/Cyclin C; [5],89.9173%
same,CDK19 occupancy (%),CDK19/Cyclin C; [6],87.736%
same,CDK19 occupancy (%),CDK19/Cyclin C; [7],82.404%
same,CDK19 occupancy (%),CDK19/Cyclin C; [8],73.4365%
same,CDK19 occupancy (%),CDK19/Cyclin C; [9],46.7764%
same,CDK19 occupancy (%),CDK19/Cyclin C; [10],31.7498%
same,CDK19 occupancy (%),CDK19/Cyclin C; [11],15.7537%
same,CDK19 occupancy (%),CDK19/Cyclin C; [12],2.424%
same,inhibition at 10 µM,CDK19/Cyclin C; average,92.3%
same,inhibition at 10 µM,CDK19/Cyclin C; experiment 1,93.4%
same,inhibition at 10 µM,CDK19/Cyclin C; experiment 2,91.3%
same,inhibition at 10 µM,CDK11B/Cyclin L2; average,0.563%
same,inhibition at 10 µM,CDK11B/Cyclin L2; experiment 1,2.1%
same,inhibition at 10 µM,CDK11B/Cyclin L2; experiment 2,-1%
same,inhibition at 10 µM,CDK15/Cyclin Y; average,-9.7%
same,inhibition at 10 µM,CDK15/Cyclin Y; experiment 1,-3.1%
same,inhibition at 10 µM,CDK15/Cyclin Y; experiment 2,-16.3%
same,inhibition at 10 µM,CDK9/Cyclin K; average,7.2%
same,inhibition at 10 µM,CDK9/Cyclin K; experiment 1,6.8%
same,inhibition at 10 µM,CDK9/Cyclin K; experiment 2,7.5%
same,inhibition at 10 µM,CDK1/Cyclin E1; average,16.7%
same,inhibition at 10 µM,CDK1/Cyclin E1; experiment 1,19.7%
same,inhibition at 10 µM,CDK1/Cyclin E1; experiment 2,13.7%
same,inhibition at 10 µM,CDK11A/Cyclin L2; average,0.8%
same,inhibition at 10 µM,CDK11A/Cyclin L2; experiment 1,-1%
same,inhibition at 10 µM,CDK11A/Cyclin L2; experiment 2,2.6%
same,inhibition at 10 µM,CDK17/Cyclin Y; average,11.3%
same,inhibition at 10 µM,CDK17/Cyclin Y; experiment 1,8.9%
same,inhibition at 10 µM,CDK17/Cyclin Y; experiment 2,13.7%
same,inhibition at 10 µM,CDK16/Cyclin Y; experiment 1,6.3%
same,inhibition at 10 µM,CDK16/Cyclin Y; experiment 2,1.1%
same,inhibition at 10 µM,CDK4/Cyclin D1; average,12.4%
same,inhibition at 10 µM,CDK4/Cyclin D1; experiment 1,11.6%
same,inhibition at 10 µM,CDK4/Cyclin D1; experiment 2,13.1%
same,inhibition at 10 µM,CDK10/Cyclin L2; average,-11.6%
same,inhibition at 10 µM,CDK10/Cyclin L2; experiment 1,-2.4%
same,inhibition at 10 µM,CDK10/Cyclin L2; experiment 2,-20.8%
same,IC50,"CDK8/Cyclin C; IC50 (nM), experiment 1",2.6 nM
same,IC50,"CDK8/Cyclin C; IC50 (nM), experiment 2",2 nM
same,IC50,"CDK8/Cyclin C; IC50 (nM), experiment 3",12 nM
same,IC50,CDK8/Cyclin C; [1],6 nM
same,CDK8 Occupancy (%),CDK8/Cyclin C; [2],92.3464%
same,CDK8 Occupancy (%),CDK8/Cyclin C; [3],91.9478%
same,CDK8 Occupancy (%),CDK8/Cyclin C; [4],84.2411%
same,CDK8 Occupancy (%),CDK8/Cyclin C; [5],91.0176%
same,CDK8 Occupancy (%),CDK8/Cyclin C; [6],91.5491%
same,CDK8 Occupancy (%),CDK8/Cyclin C; [7],90.619%
same,CDK8 Occupancy (%),CDK8/Cyclin C; [8],85.7027%
same,CDK8 Occupancy (%),CDK8/Cyclin C; [9],65.2404%
same,CDK8 Occupancy (%),CDK8/Cyclin C; [10],51.023%
same,CDK8 Occupancy (%),CDK8/Cyclin C; [11],25.2458%
same,CDK8 Occupancy (%),CDK8/Cyclin C; [12],19.9309%
same,inhibition at 10 µM,CDK8/Cyclin C; average,96%
same,inhibition at 10 µM,CDK8/Cyclin C; experiment 1,95%
same,inhibition at 10 µM,CDK8/Cyclin C; experiment 2,96.9%
same,inhibition at 10 µM,CDK18/Cyclin Y; average,0.4%
same,inhibition at 10 µM,CDK18/Cyclin Y; experiment 1,-7.3%
same,inhibition at 10 µM,CDK18/Cyclin Y; experiment 2,8.1%
same,inhibition at 10 µM,CDK5/CDK5R1; average,16.2%
same,inhibition at 10 µM,CDK5/CDK5R1; experiment 1,17.8%
same,inhibition at 10 µM,CDK5/CDK5R1; experiment 2,14.5%
same,inhibition at 10 µM,CDK13/Cyclin K; average,6.6%
same,inhibition at 10 µM,CDK13/Cyclin K; experiment 1,6.4%
same,inhibition at 10 µM,CDK13/Cyclin K; experiment 2,6.7%
same,inhibition at 10 µM,CDK20/Cyclin H; experiment 1,12.7%
same,inhibition at 10 µM,CDK20/Cyclin H; experiment 2,4.1%
same,inhibition at 10 µM,CDK6/Cyclin D1; average,17.9%
same,inhibition at 10 µM,CDK6/Cyclin D1; experiment 1,15.1%
same,inhibition at 10 µM,CDK6/Cyclin D1; experiment 2,20.8%
same,inhibition at 10 µM,CDK12/Cyclin K; average,1.9%
same,inhibition at 10 µM,CDK12/Cyclin K; experiment 1,5.9%
same,inhibition at 10 µM,CDK12/Cyclin K; experiment 2,-2.2%
same,inhibition at 10 µM,CDK7; average,9.4%
same,inhibition at 10 µM,CDK7; experiment 1,11.5%
same,inhibition at 10 µM,CDK7; experiment 2,7.3%

# Source: publication PMC7265341, “Quantifying CDK inhibitor selectivity in live cells” (Nature Communications, 2020)
